Measured values: PMC10145973, “Genomic Insights into Bacterial Resistance to Proline-Rich Antimicrobial Peptide Bac7” (Membranes, 2023)
Converted amounts (≈) assume the structure as drawn. “And” between values parts separate entries of the source, which are not always exact repeats. Equal values may be shown once. Where a SMILES comes first, the peptide text is derived from it.

Tests used:
[1] = tested on: resistant Salmonella enterica strain (pmrB mutations); details: cited from earlier work
[2] = tested on: extensively drug-resistant Klebsiella pneumoniae isolate; design: method as in PMID 30445429; details: serially passaged in the presence of the agent; cited from earlier work
E. coli MDR 1057 B2 [3] = assay: microbe, parasite or virus in culture; details: Escherichia coli, MDR1057B2, 24 h, read-out: Minimum Inhibitory Concentration, B2
E. coli MDR 1057 P1 [4] = assay: microbe, parasite or virus in culture; details: Escherichia coli, MDR1057P1, 24 h, read-out: Minimum Inhibitory Concentration, P1
E. coli MDR 1057 WT [5] = assay: microbe, parasite or virus in culture; details: Escherichia coli, MDR1057WT, 24 h, read-out: Minimum Inhibitory Concentration, WT
E. coli MDR 1057 B3 [6] = assay: microbe, parasite or virus in culture; details: Escherichia coli, MDR1057B3, 24 h, read-out: Minimum Inhibitory Concentration, B3
E. coli MDR 1057 WT [7] = details: Table 2; broth microdilution in MHB (medium ±0.9% NaCl not given), 10^6 CFU/mL suspension, agents diluted in 0.1% BSA, 24 h, 37 °C, visible turbidity; median of at least three independent experiments in triplicate
E. coli MDR 1057 B2 [8] = details: Table 2; broth microdilution in MHB (medium ±0.9% NaCl not given), 0.1% BSA, 24 h, 37 °C; median of at least three independent experiments in triplicate
E. coli MDR 1057 B3 [9] = details: Table 2; broth microdilution in MHB (medium ±0.9% NaCl not given), 0.1% BSA, 24 h, 37 °C; median of at least three independent experiments in triplicate
E. coli MDR 1057 P1 [10] = details: Table 2; broth microdilution in MHB (medium ±0.9% NaCl not given), 0.1% BSA, 24 h, 37 °C; median of at least three independent experiments in triplicate

Compound	MIC (E. coli MDR 1057 B2 [3])	MIC (E. coli MDR 1057 P1 [4])	MIC (E. coli MDR 1057 WT [5])	MIC (E. coli MDR 1057 B3 [6])	other results
colistin	–	–	–	–	MIC after a single pmrB mutation [1]: up to 3 µg/mL and ≤ 4 µM; increase in MIC after serial passage [2]: ≥ 1000 fold
O=C(O)c1cn(C2CC2)c2cc(N3CCNCC3)c(F)cc2c1=O [Ciprofloxacin]	128 µM (≈ 42.4 µg/mL)	128 µM (≈ 42.4 µg/mL)	–	–	–
O=C(N[C@H](CO)[C@H](O)c1ccc([N+](=O)[O-])cc1)C(Cl)Cl [Chloramphenicol]	16 µM (≈ 5.17 µg/mL)	16 µM (≈ 5.17 µg/mL)	8 µM (≈ 2.59 µg/mL)	8 µM (≈ 2.59 µg/mL)	–
CC(C)C[C@H](NC(=O)[C@H](CCCNC(=N)N)NC(=O)[C@@H](N)CCCNC(=N)N)C(=O)N[C@@H](CCCNC(=N)N)C(=O)N1CCC[C@H]1C(=O)N[C@@H](CCCNC(=N)N)C(=O)N[C@@H](CCCNC(=N)N)C(=O)N1CCC[C@H]1C(=O)N[C@@H](CCCNC(=N)N)C(=O)N[C@@H](CC(C)C)C(=O)N1CCC[C@H]1C(=O)N[C@@H](CCCNC(=N)N)C(=O)N1CCC[C@H]1C(=O)N[C@@H](CCCNC(=N)N)C(=O)N1CCC[C@H]1C(=O)N[C@@H](CCCNC(=N)N)C(=O)N1CCC[C@H]1C(=O)N[C@@H](CCCNC(=N)N)C(=O)N1CCC[C@H]1C(=O)N[C@@H](CCCNC(=N)N)C(=O)N1CCC[C@H]1C(=O)N[C@@H](CCCNC(=N)N)C(=O)O [mini-ChBac7.5Nα] (H-RRLRPRRPRLPRPRPRPRPRPR-OH)	–	–	–	–	Minimum Inhibitory Concentration, WT (E. coli MDR 1057 WT [7]): 8 µM; Minimum Inhibitory Concentration, B2 (E. coli MDR 1057 B2 [8]): >32 µM; Minimum Inhibitory Concentration, B3 (E. coli MDR 1057 B3 [9]): >32 µM; Minimum Inhibitory Concentration, P1 (E. coli MDR 1057 P1 [10]): >32 µM
CC1(C)S[C@@H]2[C@H](NC(=O)[C@H](N)c3ccccc3)C(=O)N2[C@H]1C(=O)O [Ampicillin]	256 µM (≈ 89.4 µg/mL)	256 µM (≈ 89.4 µg/mL)	256 µM (≈ 89.4 µg/mL)	256 µM (≈ 89.4 µg/mL)	–
CC[C@H]1OC(=O)[C@H](C)[C@@H](O[C@H]2C[C@@](C)(OC)[C@@H](O)[C@H](C)O2)[C@H](C)[C@@H](O[C@@H]2O[C@H](C)C[C@H](N(C)C)[C@H]2O)[C@](C)(O)C[C@@H](C)/C(=N\OCOCCOC)[C@H](C)[C@@H](O)[C@]1(C)O [Roxithromycin]	256 µM (≈ 214 µg/mL)	> 256 µM	256 µM (≈ 214 µg/mL)	256 µM (≈ 214 µg/mL)	–
CN[C@@H]1[C@H](O)[C@H](NC)[C@H]2O[C@@]3(O)C(=O)C[C@@H](C)O[C@H]3O[C@@H]2[C@H]1O [Spectinomycin]	32 µM (≈ 10.6 µg/mL)	64 µM (≈ 21.3 µg/mL)	32 µM (≈ 10.6 µg/mL)	32 µM (≈ 10.6 µg/mL)	–
